Experimental data: paper PMC3256212, “Mechanism and Function of Drosophila capa GPCR: A Desiccation Stress-Responsive Receptor with Functional Homology to Human NeuromedinU Receptor” (PLoS ONE, 2012)
Ends that are not written are not given here.

Experiments:
phospholipase C (PLC) = assay: PLC inhibition: capa-1-induced [Ca2+]i response in S2-capaR cells; format: cell-based, Drosophila; conditions: Fig. 1D
Experimental: (§1) Drosophila S2 cells, cultured under standard conditions were transiently transfected with the apoaequorin ORF [21] and a receptor ORF construct, and expression induced using CuSO4. Transfected S2 cells were harvested and incubated with 2.5 µM coelenterazine in the dark at RT for 1–2 h as previously described. 25,000 cells were then placed in 135 µl Schneider's medium supplemented with 10% FCS in a well of a white polystyrene 96-well plate (Berthold Technologies). Bioluminescence recordings were carried out using a Mithras LB940 automated 96-well plate reader (Berthold Technologies) and MikroWin software. 15 µl of each of different peptides were applied to final concentrations as required. At the end of each recording samples were disrupted by the addition of 100 µl lysis solution, and the [Ca^2+] concentrations calculated as previously described. For assays in Ca^2+-free medium, transfected cells were collected and pelleted after incubation with coelenterazine. Cell pellets were re-suspended in Ca^2+-free Schneider's medium (Invitrogen Inc.) without FCS and collected by centrifugation. The washing and pelleting procedure was repeated once more. Experiments were then carried out on 25,000 cells per sample as above. […]

capaR (CG14575) = biological target: T1, capaR (CG14575) (Drosophila melanogaster, UniProt Q8ITC7); assay: [Ca2+]i (aequorin) in capaR-transfected S2 cells; format: cell-based; conditions: for EC50: S2 cells expressing capaR and apoaequorin, maximal - background, mean ± S.E.M., N = 6 (Fig. 1C), read-out: EC50 for stimulated [Ca2+]i responses via capaR; for effect on [Ca2+]i via capaR: 10^−7 M, S2 cells (Fig. 3A)
T1 construct: The ORF of capaR was amplified from whole fly cDNA as template; expressed in transfected cells; host or cells: Drosophila S2 cells (pMT/V5-His TOPO, CuSO4 induction)
T1 sequence (Q8ITC7 1-477): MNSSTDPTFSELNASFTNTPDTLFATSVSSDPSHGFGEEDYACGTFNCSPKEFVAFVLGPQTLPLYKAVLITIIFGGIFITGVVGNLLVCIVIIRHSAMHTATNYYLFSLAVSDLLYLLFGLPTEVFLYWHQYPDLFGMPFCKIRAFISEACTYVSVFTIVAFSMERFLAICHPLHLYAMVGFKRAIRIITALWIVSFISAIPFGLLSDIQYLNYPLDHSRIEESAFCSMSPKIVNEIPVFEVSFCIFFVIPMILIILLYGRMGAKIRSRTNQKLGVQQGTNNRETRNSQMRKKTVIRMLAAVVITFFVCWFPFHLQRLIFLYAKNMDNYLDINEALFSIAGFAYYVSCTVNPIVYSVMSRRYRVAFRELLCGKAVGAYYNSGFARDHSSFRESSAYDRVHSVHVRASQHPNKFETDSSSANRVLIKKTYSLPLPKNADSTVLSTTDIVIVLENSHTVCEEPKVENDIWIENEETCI
Excerpt: The ORF of capaR was amplified from whole fly cDNA as template using the primers 5′-[…]-3′ and 5′-[…]-3′ and cloned into pMT/V5-His TOPO vector (Invitrogen). The eYFP ORF was fused in-frame at the C-terminus of the capaR using KpnI and ApaI sites and the tagged construct was cloned into the pMT/V5-His TOPO vector.
(§2) The capa peptides Drm-capa-1 (GANMGLYAFPRVamide), Drm-capa-2 (ASGLVAFPRVamide), Drm-PK-1 (TGPSASSGLWFGPRLamide), Drm-PK-2 (SVPFKPRLamide) and hugin gamma (hugg, pQLQSNGEPAYRVRTPRL-amide) were synthesised as C-terminally amidated peptides (Biomatik Corporation, Canada). Peptides were dissolved in distilled ACN/H2O to a concentration of 1 mM and then diluted to the required working concentration in Schneider's medium (Invitrogen Inc.). Human neuromedin U-25 was purchased from Sigma. Rabbit polyclonal antibody to porcine neuromedinU-8 was purchased from Progen biotechnik (Heidelberg, Germany). Rabbit capa precursor peptide used was described in [21] Rabbit anti-peptide antibody was raised against the capaR epitope (CQQGTNNRETRNSQM) by Genosphere Biotechnologies (Paris, France) and purified on a HiTrap NHS-activated HP column (Amersham Pharmacia Bio-tech; Buckinghamshire, UK) according to the manufacturer's instructions. Immunohistochemistry was carried out as described previously. Mouse anti-GFP primary antibody (Zymed) and the antiserum to neuromedinU-8 were all diluted 1∶1000 or, in the case of the pre-immune serum, the affinity-purified capaR antibody and the antiserum to the capa precursor peptide, 1∶500. Incubations in the primary antibodies were performed overnight. A FITC-conjugated affinity-purified goat anti-mouse antibody (Jackson Immunologicals) was used in a dilution of 1∶1,000 for visualization of the mouse monoclonal anti-GFP. A Texas red-conjugated affinity-purified goat anti-rabbit antibody (Jackson Immunologicals) was used at a dilution of 1∶1,000 for visualization of the rabbit capaR antiserum.
Drosophila S2 cells, cultured under standard conditions were transiently transfected with the apoaequorin ORF [21] and a receptor ORF construct, and expression induced using CuSO4. Transfected S2 cells were harvested and incubated with 2.5 µM coelenterazine in the dark at RT for 1–2 h as previously described. 25,000 cells were then placed in 135 µl Schneider's medium supplemented with 10% FCS in a well of a white polystyrene 96-well plate (Berthold Technologies). Bioluminescence recordings were carried out using a Mithras LB940 automated 96-well plate reader (Berthold Technologies) and MikroWin software. 15 µl of each of different peptides were applied to final concentrations as required. At the end of each recording samples were disrupted by the addition of 100 µl lysis solution, and the [Ca^2+] concentrations calculated as previously described. For assays in Ca^2+-free medium, transfected cells were collected and pelleted after incubation with coelenterazine. Cell pellets were re-suspended in Ca^2+-free Schneider's medium (Invitrogen Inc.) without FCS and collected by centrifugation. The washing and pelleting procedure was repeated once more. Experiments were then carried out on 25,000 cells per sample as above. To verify whether the observed calcium signal was linked to phospholipase C (PLC) activation, S2-capaR cells were preincubated with the PLC inhibitor U73122 at concentration of 10^−3 M to 10^−8 M for 10 min. Luminometry experiments were carried out on live, intact tubules expressing a targeted transgene for cytosolic-targeted apoaequorin in either principal or stellate cells as previously described, [22]. For in vivo tubule experiments, flies of the following genotypes were used: c42aeq, capaR-GAL4, UAS-capaR, UAS-capaR RNAi, UAS-NMUR 2 and the resulting progeny from GAL4>UAS crosses.

NMR 1 = test system: NMR 1; set-up: method as in earlier work; conditions: CHO cells; ref 39 (Fujii et al.); cited from earlier work
NMU receptor 2 (NMUR 2) = biological target: T2, NMU receptor 2 (NMUR 2) (Homo sapiens, UniProt Q9GZQ4); assay: [Ca2+]i (aequorin) in NMUR 2-transfected S2 cells; format: cell-based; conditions: 10^−7 M, S2 cells (Fig. 3B)
T2 construct: expressed in transfected cells; host or cells: Drosophila S2 cells (pMT/V5-His TOPO)
Experimental: as §2
as §1, with “more.” for “more. Experiments were then carried out on 25,000 cells per sample as above.”

Malpighian tubule = assay: Fluid transport by wild-type Malpighian tubules; set-up: species or system Drosophila melanogaster; conditions: 10^−7 M; mean ± SEM, N = 6–10, Student's t-test P<0.05 (Fig. 4A)
Experimental: Fluid transport assays were carried out as previously described using live, intact tubules dissected from 7-day-old adults with the following genotypes: wild-type Canton-S, c42-GAL4>UAS-capaR RNAi, actin-GAL4>UAS-NMUR 2. Fluid droplets were collected every 10 min, and the volumes of fluid were calculated. Basal rates of fluid secretion were monitored for 30 min, whereupon peptide was added, and the secretion rate was then recorded for a further 30 min.

CG8795 (hugin receptor) = assay: [Ca2+]i (aequorin) in CG8795-transfected S2 cells; format: cell-based, Drosophila; conditions: 10^−7 M, S2 cells (Fig. 3C)
Experimental: as §2, with “A Texas red-conjugated affinity-purified goat anti-rabbit antibody (Jackson Immunologicals) was used at a dilution of 1∶1,000 for visualization of the rabbit capaR antiserum.” left out
Drosophila S2 cells, cultured under standard conditions were transiently transfected with the apoaequorin ORF [21] and a receptor ORF construct, and expression induced using CuSO4. […] Bioluminescence recordings were carried out using a Mithras LB940 automated 96-well plate reader (Berthold Technologies) and MikroWin software. […] At the end of each recording samples were disrupted by the addition of 100 µl lysis solution, and the [Ca^2+] concentrations calculated as previously described. […]

[1] = biological target: T3, capa receptor (capaR, CG14575) expressed in S2 cells (D. melanogaster) (UniProt Q8ITC7)
T3 sequence: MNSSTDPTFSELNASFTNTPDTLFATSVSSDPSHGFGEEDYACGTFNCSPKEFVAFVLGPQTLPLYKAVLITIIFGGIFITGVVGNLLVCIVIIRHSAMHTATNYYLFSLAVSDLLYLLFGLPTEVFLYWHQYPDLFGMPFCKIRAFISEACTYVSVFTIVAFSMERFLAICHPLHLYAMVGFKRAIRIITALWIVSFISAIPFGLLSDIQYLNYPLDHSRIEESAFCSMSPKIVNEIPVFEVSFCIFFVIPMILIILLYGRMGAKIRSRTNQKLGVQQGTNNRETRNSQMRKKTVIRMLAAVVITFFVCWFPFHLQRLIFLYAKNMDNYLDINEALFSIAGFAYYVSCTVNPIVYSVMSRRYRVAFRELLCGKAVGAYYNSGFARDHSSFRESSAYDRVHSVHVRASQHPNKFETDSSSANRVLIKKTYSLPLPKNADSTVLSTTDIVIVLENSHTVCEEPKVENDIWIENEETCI

[2] = biological target: T3, capa receptor (capaR, CG14575) expressed in S2 cells (D. melanogaster); remark: listed apart in the source
[3] = biological target: human neuromedin U receptor 2 (human) (UniProt Q9GZQ4)
human neuromedin U receptor 2 (human), sequence (Q9GZQ4 whole entry): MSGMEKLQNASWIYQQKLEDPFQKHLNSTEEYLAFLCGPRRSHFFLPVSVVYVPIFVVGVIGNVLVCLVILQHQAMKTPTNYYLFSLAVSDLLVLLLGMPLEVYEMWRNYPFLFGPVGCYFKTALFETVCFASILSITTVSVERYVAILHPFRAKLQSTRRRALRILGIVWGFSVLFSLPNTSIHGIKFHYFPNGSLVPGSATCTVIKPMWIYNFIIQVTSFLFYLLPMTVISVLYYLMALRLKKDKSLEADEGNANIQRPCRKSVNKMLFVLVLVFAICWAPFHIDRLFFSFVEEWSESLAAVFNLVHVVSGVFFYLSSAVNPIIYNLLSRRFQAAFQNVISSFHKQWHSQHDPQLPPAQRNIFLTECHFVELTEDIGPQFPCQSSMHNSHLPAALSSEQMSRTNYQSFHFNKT

T2 sequence (Q9GZQ4 whole entry): as above

COc1ccc2c(c1)CC[C@@H]1[C@@H]2CC[C@]2(C)[C@@H](NCCCCCCN3C(=O)C=CC3=O)CC[C@@H]12 [U73122]
inhibition of capa-1-induced [Ca2+]i response (phospholipase C (PLC)): inhibited by the widely-used PLC inhibitor (U73122) in a dose-dependent manner

CSCC[C@H](NC(=O)[C@H](CC(N)=O)NC(=O)[C@H](C)NC(=O)CN)C(=O)NCC(=O)N[C@@H](CC(C)C)C(=O)N[C@@H](Cc1ccc(O)cc1)C(=O)N[C@@H](C)C(=O)N[C@@H](Cc1ccccc1)C(=O)N1CCC[C@H]1C(=O)N[C@@H](CCCNC(=N)N)C(=O)N[C@H](C(N)=O)C(C)C [capa-1]
EC50 (capaR (CG14575)): 3.06 nM

CC(C)C[C@H](NC(=O)CNC(=O)[C@H](CO)NC(=O)[C@H](C)N)C(=O)N[C@H](C(=O)N[C@@H](C)C(=O)N[C@@H](Cc1ccccc1)C(=O)N1CCC[C@H]1C(=O)N[C@@H](CCCNC(=N)N)C(=O)N[C@H](C(N)=O)C(C)C)C(C)C [capa-2]
EC50 (capaR (CG14575)): 4.32 nM

MNYLAFPRM-NH2 [SCPB]
agonistic activity to NMR 1 (NMR 1): significant agonistic activity

SVPFKPRL-NH2 [Drm-PK-2, Drosophila pyrokinin, SVPFKPRLamide]
effect on [Ca2+]i via NMUR 2 (NMU receptor 2 (NMUR 2)): do not have effects on either capaR (Fig. 3A) or NMUR 2 | fluid transport by wild-type tubules (Malpighian tubule): not with Drm-PK-1, hugg, Drm-PK-2 | effect on [Ca2+]i via capaR (capaR (CG14575)): do not have effects on either capaR | effect on [Ca2+]i via CG8795 (CG8795 (hugin receptor)): stimulates increased [Ca^2+]i levels

TGPSASSGLWFGPRL-NH2 [Drm-PK-1, Drosophila pyrokinin, …amide]
effect on [Ca2+]i via NMUR 2 (NMU receptor 2 (NMUR 2)): do not have effects on either capaR (Fig. 3A) or NMUR 2 | fluid transport by wild-type tubules (Malpighian tubule): not with Drm-PK-1, hugg, Drm-PK-2 | effect on [Ca2+]i via capaR (capaR (CG14575)): do not have effects on either capaR | effect on [Ca2+]i via CG8795 (CG8795 (hugin receptor)): stimulates increased [Ca^2+]i levels

pQLQSNGEPAYRVRTPRL-amide [hugg, hugin gamma, p…-amide]
effect on [Ca2+]i via NMUR 2 (NMU receptor 2 (NMUR 2)): increases [Ca^2+]i via NMUR 2 but to a reduced level compared to capa-1 | fluid transport by wild-type tubules (Malpighian tubule): not with Drm-PK-1, hugg, Drm-PK-2 | effect on [Ca2+]i via capaR (capaR (CG14575)): but not hugg nor Drm-PK-2, increases intracellular calcium ([Ca^2+]i) levels via capaR | effect on [Ca2+]i via CG8795 (CG8795 (hugin receptor)): stimulates increased [Ca^2+]i levels

B1: Drm-capa-2 (peptide)
peptide: ASGLVAFPRV-NH2
[Ca2+]i (aequorin luminescence) in S2 cells expressing capaR and apoaequorin, dose-response to capa-2 [1]: 4.32 nM

B2: Drm-capa-1 (peptide)
peptide: GANMGLYAFPRV-NH2
[Ca2+]i (aequorin luminescence) in S2 cells expressing capaR and apoaequorin, dose-response to capa-1 [1]: 3.06 nM

B3: Human neuromedin U-25 (peptide)
peptide: FRVDEEFQSPFASQSRGYFLFRPRN-NH2
[Ca2+]i, dose-response to NMU-25; first of two values given 'respectively', probably capaR- and apoaequorin-co-transfected S2 cells [2]: 21.8 nM | [Ca2+]i, dose-response to NMU-25; second of two values given 'respectively', probably intact tubules expressing apoaequorin in principal cells (endogenous capaR) [2]: 27.1 nM | [Ca2+]i in S2 cells expressing NMUR 2 and apoaequorin, dose-response to NMU-25 [3]: 0.91 nM
